Data published in BindingDB's records for doi:10.1021/acs.jnatprod.7b00282 (Chiba University, 2017).

Test: Inhibition of recombinant mouse N-terminal FLAG-tagged Notch1 (1704 to 2531 residues) expressed in human LS174T cells assessed as reduction in doxycycline-induced NICD expression after 12 hrs by Bright-Glo luciferase reporter gene assay

SMILES	IC50 [nM]
C[C@@H]1C[C@@]2(N=CCS2)[C@]2(O)O[C@@H]3C[C@@]4(C=O)[C@@H](CC[C@@H]5[C@@H]4CC[C@]4(C)[C@@H](C6=CC(=O)OC6)[C@H](O)C[C@]54O)C[C@H]3O[C@@H]2O1	700
C[C@@H]1C[C@@]2(NCCS2)[C@]2(O)O[C@@H]3C[C@@]4(C=O)[C@@H](CC[C@@H]5[C@@H]4CC[C@]4(C)[C@@H](C6=CC(=O)OC6)CC[C@]54O)C[C@H]3O[C@@H]2O1	2000
C[C@@H]1C[C@@]2(NC(=O)CS2)[C@]2(O)O[C@@H]3C[C@@]4(C=O)[C@@H](CC[C@@H]5[C@@H]4CC[C@]4(C)[C@@H](C6=CC(=O)OC6)CC[C@]54O)C[C@H]3O[C@@H]2O1	300
COC(=O)[C@@]1(O)C[C@@H](C)O[C@H]1O[C@@H]1C[C@@H]2CC[C@@H]3[C@H](CC[C@]4(C)[C@@H](C5=CC(=O)OC5)[C@H](O)C[C@]34O)[C@@]2(C=O)C[C@H]1O	17300
CC(=O)O[C@H]1C[C@@H](C)O[C@H]2O[C@@H]3C[C@@H]4CC[C@@H]5[C@H](CC[C@]6(C)[C@@H](C7=CC(=O)OC7)CC[C@]56O)[C@@]4(C=O)C[C@H]3O[C@]21O [CHEBI:2867]	300
C[C@@H]1C[C@H](O)[C@]2(O)O[C@@H]3C[C@@]4(C=O)[C@@H](CC[C@@H]5[C@@H]4CC[C@]4(C)[C@@H](C6=CC(=O)OC6)CC[C@]54O)C[C@H]3O[C@@H]2O1 [CHEBI:3329]	800
C[C@@H]1CC(=O)[C@]2(O)O[C@@H]3C[C@@]4(C=O)[C@@H](CC[C@@H]5[C@@H]4CC[C@]4(C)[C@@H](C6=CC(=O)OC6)CC[C@]54O)C[C@H]3O[C@@H]2O1 [CHEBI:9913]	2400
C[C@@H]1C[C@@]2(N=CCS2)[C@]2(O)O[C@@H]3C[C@@]4(C=O)[C@@H](CC[C@@H]5[C@@H]4CC[C@]4(C)[C@@H](C6=CC(=O)OC6)CC[C@]54O)C[C@H]3O[C@@H]2O1 [Uscharin]	400
